Experimental data: publication PMC12356528, “Modular Synthetic Platform for the Elaboration of Fragments in Three Dimensions for Fragment-Based Drug Discovery” (Journal of the American Chemical Society, 2025)
Converted amounts (≈) assume the structure as drawn. Where two headings read alike, the source gives them in different places.

Assays:
[1] = DMPK Wave1: aqueous solubility; assay type: physicochemical
[2] = DMPK Wave1: metabolic stability in rat hepatocytes; assay type: in vitro ADME; settings: rat hepatocytes (RH)
[3] = DMPK Wave1: metabolic stability in human liver microsomes; assay type: in vitro ADME; settings: human liver microsomes (HLM)
[4] = DMPK Wave1: lipophilicity (measured logD); assay type: physicochemical

Row | Compound | solubility [1] [µM] | metabolic stability (in words) [2] | metabolic stability (in words) [3] | logD [4] | solubility ([1]; aqueous) [µM]
1 | COc1cc([C@H]2[C@@H]3CN(C(=O)Cc4c[nH]c5ccccc45)CC[C@@H]32)ccn1 [Compound 81] | 100 (≈ 36.1 µg/mL) | lower metabolic stability | lower metabolic stability | 3.1 | 
2 | CS(=O)(=O)N1CCC2CC21c1cncnc1 (stereo not drawn) [Compound 86] | 881 (≈ 211 µg/mL) |  |  | -0.4 | 
3 | CS(=O)(=O)N1C2CCC1CC1(C2)CC1c1cncnc1 (stereo not drawn) [Compound 91] | > 981 |  |  | 0.5 | 
4 | C=CC(=O)N1C[C@H](Nc2ncnc3[nH]ccc23)CC[C@@H]1C [Ritlecitinib, 1-((2S,5R)-5-((7H-Pyrrolo[2,3-d]pyrimidin-4-yl)amino)-2-methylpiperidin-1-yl)prop-2-en-1-one, reference compound] |  |  |  | 1.6 | 996 (≈ 284 µg/mL)

Second part, the compound after the results:

Row | solubility [1] [µM] | metabolic stability (in words) [2] | metabolic stability (in words) [3] | logD [4] | solubility ([1]; aqueous) [µM] | Compound
5 | 49 (≈ 18.9 µg/mL) | lower metabolic stability | lower metabolic stability | 3.6 |  | Cc1noc(C)c1S(=O)(=O)N1CCC2(CC1)CC2c1cnc2[nH]ccc2c1 (stereo not drawn) [Compound 78]
6 | 887 (≈ 274 µg/mL) | good metabolic stability | good metabolic stability | 0.1 |  | c1ncc(C2CC23CCN(c2ccc4c(c2)OCO4)CC3)cn1 (stereo not drawn) [Compound 82]
7 | 931 (≈ 249 µg/mL) |  |  | 0.2 |  | CS(=O)(=O)N1CCC2(CC1)CC2c1cncnc1 (stereo not drawn) [Compound 87]
8 | 913 (≈ 218 µg/mL) |  |  | -0.6 |  | CS(=O)(=O)N1CC2(CC2c2cncnc2)C1 (stereo not drawn) [Compound 88]
9 |  |  |  | 0.1 | 823 (≈ 208 µg/mL) | CS(=O)(=O)N1CCC[C@@H]2[C@@H](c3cncnc3)[C@@H]21 [Compound 94]
